Results from patent publication US7087757B2, “Phenyl-substituted imidazopyridines” (Ortho-McNeil Pharmaceutical, Inc., priority 2000, dated 2006).

The molecules below were run against T1, human histamine H3 receptor (Homo sapiens, UniProt Q9Y5N1) (assay: [3H]-N-methylhistamine binding). Conditions: membranes of histamine H3 receptor-expressing SK-N-MC cells; 0.8 nM [3H]-N-methylhistamine; 45 minutes at 25° C.; Ki calculated with KD of 800 pM.
T1 construct: One microgram supercoiled H3 receptor cDNA was added to the cells and mixed; expressed in transfected cells; membranes prepared from cell pellets
T1 sequence (Q9Y5N1 whole entry): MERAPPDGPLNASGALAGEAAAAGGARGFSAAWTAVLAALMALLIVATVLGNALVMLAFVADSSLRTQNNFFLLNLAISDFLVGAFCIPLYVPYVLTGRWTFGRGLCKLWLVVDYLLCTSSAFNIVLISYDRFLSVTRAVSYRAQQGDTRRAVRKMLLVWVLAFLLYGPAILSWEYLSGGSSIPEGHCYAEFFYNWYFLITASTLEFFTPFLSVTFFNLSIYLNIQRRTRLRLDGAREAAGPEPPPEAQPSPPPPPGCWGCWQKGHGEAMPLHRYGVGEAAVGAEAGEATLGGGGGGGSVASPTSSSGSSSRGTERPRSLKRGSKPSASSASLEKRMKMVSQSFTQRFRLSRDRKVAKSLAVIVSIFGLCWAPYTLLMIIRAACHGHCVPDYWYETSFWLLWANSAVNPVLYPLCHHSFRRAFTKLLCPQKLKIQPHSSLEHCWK
Experimental: Screening using the human receptor is particularly important for the identification of new therapies for the treatment of human disease.
A 10 cm tissue culture dish with a confluent monolayer of SK-N-MC cells was split two days prior to transfection. Using sterile technique the media was removed and the cells were detached from the dish by the addition of trypsin. One fifth of the cells were then placed onto a new 10 cm dish. Cells were grown in a 37° C. incubator with 5% CO2 in Minimal Essential Media Eagle with 10% Fetal Bovine Serum. After two days cells were approximately 80% confluent. These were removed from the dish with trypsin and pelleted in a clinical centrifuge. […] One microgram supercoiled H3 receptor cDNA was added to the cells and mixed. The voltage for the electroporation was set at 0.25 kV, the capacitance is set at 960 μF.
After electroporation the cells were diluted into 10 mL complete media and plated onto four 10 cm dishes. Due to the variability in the efficiency of electroporation, four different concentrations of cells were plated. The ratios used were: 1:20, 1:10, and 1:5, with the remainder of the cells being added to the fourth dish. The cells were allowed to recover for 24 hours before adding the selection media (complete media with 600 μg/ml G418). After 10 days dishes were analyzed for surviving colonies of cells. Dishes with well-isolated colonies were used. Cells from individual colonies were isolated and tested. SK-N-MC cells were used because they give efficient coupling for inhibition of adenylate cyclase. The clones that gave the most robust inhibition of adenylate cyclase in response to histamine were used for further study.
Cell pellets from histamine H3 receptor-expressing SK-N-MC cells were homogenized in 20 mM Tris HCl/0.5 mM EDTA. Supernatants from a 800 g spin were collected, reccentrifuged at 30,000 g for 30 minutes. Pellets were rehomogenized in 50 mM Tris/5 mM EDTA (pH 7.4). Membranes were incubated with 0.8 nM [^3H]-N-methylhistamine plus/minus test compounds for 45 minutes at 25° C. and harvested by rapid filtration over GF/C glass fiber filters (pretreated with 0.3% polyethylenimine) followed by four washes with ice cold buffer. Filters were dried, added to 4 mL scintillation cocktail and then counted on a liquid scintillation counter.

Row | Structure (SMILES) | Ki [nM]
1 | Cc1cccn2cc(-c3ccc(NS(=O)(=O)CCCN4CCCCC4)cc3)nc12 [Example 53, 3-Piperidin-1-yl-propane-1-sulfonic acid [4-(8-methyl-imidazo[1,2-a]pyridin-2-yl)-phenyl]] | 630
2 | Cc1cccn2cc(-c3ccc(OCCCN4CCN(CCc5ccccc5)CC4)cc3)nc12 [Example 45, 2-[4-[3-(4-Phenethylpiperazino)propoxy]phenyl]-8-methylimidazo[1,2-a]pyridine] | 500
3 | Cc1ccn2cc(-c3ccc(C#CCCN4CCCCC4)cc3)nc2c1 [Example 33, 2-[4-[4-Piperidinobut-1-ynyl]phenyl]-7-methylimidazo[1,2-a]pyridine] | 3
4 | CCN(CC)CCNC(=O)c1ccc(-c2cn3cccc(C)c3n2)cc1 [Example 1, N-(2-Diethylamino-ethyl)-4-(8-methyl-imidazo[1,2-a]pyridin-2-yl)-benzamide] | 90
5 | CCN(CC)CCCNc1ccc(-c2cn3cccc(C)c3n2)cc1 [Example 29, N,N-Diethyl-N′-[4-(8-methyl-imidazo[1,2-a]pyridin-2-yl)-phenyl]-propane-1,3-diamine] | 9
6 | CCN(CC)CCOC(=O)c1ccc(-c2cn3cccc(C)c3n2)cc1 [Example 3, 4-(8-Methyl-imidazo[1,2-a]pyridin-2-yl)-benzoic acid 2-diethylamino-ethyl ester] | 20
7 | Cc1cc(OCCCN2CCCCC2)ccc1-c1cn2c(n1)CC(C)CC2 (stereo not drawn) [Example 17, 7-Methyl-2-[2-methyl-4-(3-piperidin-1-yl-propoxy)-phenyl]-5,6,7,8-tetrahydro-imidazo[1,2-a]pyridine] | 3.2
8 | Cc1ccn2cc(-c3ccc(OCCCN4CCCCC4)cc3C)nc2c1 [Example 22, 2-(4-Piperidinopropoxy-2-methylphenyl)-7-methylimidazo[1,2-a]pyridine] | 1
9 | Cc1cccn2cc(-c3ccc(OCC(O)CN4CCN(CCc5ccccc5)CC4)cc3)nc12 (stereo not drawn) [Example 50, 2-[4-[2-Hydroxy-3-(4-phenethylpiperazino)propoxy]phenyl]-8-methylimidazo[1,2-a]pyridi] | 1000
10 | Cc1cccn2cc(-c3ccc(NCCN4CCCCC4)cc3)nc12 [Example 31, [4-(8-Methyl-imidazo[1,2-a]pyridin-2-yl)-phenyl]-(2-piperidin-1-yl-ethyl)-amine] | 8
11 | Cc1cccn2cc(-c3ccc(OCC(O)CNC(C)(C)C)cc3)nc12 (stereo not drawn) [Example 49, 2-(4-(2-hydroxy-3-(1,1-Dimethylethyl)aminopropoxy)phenyl)-8-methylimidazo[1,2-a]pyridine] | 1000
12 | Cc1cccn2cc(-c3ccc(NC(=O)CN4CCCC4)cc3)nc12 [Example 4, N-[4-(8-Methyl-imidazo[1,2-a]pyridin-2-yl)-phenyl]-2-pyrrolidin-1-yl-acetamide] | 70
